# Test results reported in paper PMC5458078, “Global mapping of CARM1 substrates defines enzyme specificity and substrate recognition” (Nature Communications, 2017).
# Test system: 6xHis-tagged CARM1 EVH1 domain (CARM1 28-140)
# Assay: FP assay with fluorescein-labelled BAF155 peptide and 6xHis-CARM1 28-140
# Format: binding
# Details: fluorescein-labelled BAF155 peptide 5 nM; protein titrated; 50 mM HEPES pH 7.5, 150 mM NaCl, 0.005% NP-40, 0.5 mM EDTA; 2 h, room temperature; triplicates; ex 485/20 nm, em 528/20 nm
# Procedure: The DNA fragment encoding CARM1 residues 28–140 was cloned into pET21a expression vector (Novagen, Madison, WI). DNA construct was transformed into BL21(DE3)pLysS E. coli expression strain. Luria–Bertani media (1–2L) was seeded with 10 ml of overnight starter culture and grown at 37 °C until OD600 nm reached 0.6. Protein expression was then induced with the addition of 0.2 mM isopropyl β-D-1-thiogalactopranoside for 4 h at ambient temperature. Bacterial pellets were then lysed by sonication on ice in lysis buffer (50 mM Tris, pH 7.5, 150 mM NaCl, 0.05% NP-40, supplemented with 1 × protease inhibitor cocktail before use) with 70% amplitude, 30 s on, 30 s off, 10 cycles. […] Protein concentration was then determined using Bradford assay and protein purity was assessed by SDS–PAGE and Coomassie Blue staining.
# Fluorescein-labelled BAF155 peptide (constant final concentration at 5 nM) was mixed with titrations of purified recombinant proteins or BSA control in binding buffer (50 mM HEPES, pH 7.5, 150 mM NaCl, 0.005% NP-40, 0.5 mM EDTA) and incubated in dark at room temperature for 2 h. […] Polarization measurements were then corrected for background contributions to the measured intensity by subtracting the parallel and perpendicular intensity readings, from the blank buffer-only wells, from the intensity readings for each data point. […]
substance,measurement,value
bovine serum albumin (BSA): bovine serum albumin control,Fluorescence polarization change,no change in signal
